Tested on: cultured cells (L-929)
Experiment: Cytotoxicity test, liquid sample (dilution type), ISO 10993
Assay type: cell-based
Details: L-929, liquid test, 0.025 g/ml in media for test material
Protocol: The cytotoxicity test is a test to confirm the safety of the composition according to the present invention, and the presence and degree of a cytotoxic reaction in cultured cells (L-929) was evaluated. A good laboratory practice (GLP) institution was commissioned to perform the test according to each test method presented in ISO 10993.
5-2. Test Method of Liquid Sample: A liquid test solution was prepared in which a dilution solution (2× E-MEM+10% FBS) and the liquid test material were combined/diluted in a 1:1 ratio. The culture medium of cell L-929 was removed from the plate well, replaced with 1 mL of test solution and control medium (diluent), and then the cells were cultured. During culturing, microscopic examinations were carried out every 24, 48, 72±4 hours to evaluate cytotoxicity. Cadmium chloride (100 uM CdCl2) as a positive control and E-MEM+5% FBS as a negative control were also used in the test.
As the evaluation criteria of the cytotoxicity test, a score of 0 to 4 was recorded by evaluating the morphological change of cells and the degree of change in viable cells according to lysis or separation. Scores 3 and 4 were judged to be cytotoxic, and scores of 1 and 2 were judged to be non-cytotoxic.

[Cl][Cd][Cl] [Positive Control, Cadmium chloride]
0/0/0: Cytotoxicity Score 24 hr (24 hr) | Cytotoxicity Score 48 hr (48 hr) | Cytotoxicity Score 72 hr (72 hr)
